Consider two compounds from patent US10253185B2, “Fluorogenic pH-sensitive dyes and their methods of use (II)” (LIFE TECHNOLOGIES CORPORATION, priority 2012, dated 2019).

The test system of one experiment is cells. The experiment is described as follows: Intracellular pH response of dye-loaded cells under perfusion with pH standards (nigericin/valinomycin). The format is cell-based. Particulars: 5 μM loading; potassium LCIS pH standards 7.4, 7.2, 6.5, 6.0; nigericin and valinomycin 10 μM each. The procedure:
10 mL loading buffer, Compound (4): 10 μL Compound (4) from a 5 mM DMSO stock was added to 100 μL Powerload and mixed. 10 mL LCIS was added to this solution for final concentration of Compound (4) of 5 μM.
Cells were cultured on 35 mm MatTek glass bottom dishes. For loading, cells were rinsed 1× with LCIS and replaced with loading buffer described above. Cells were incubated at 37° C. for 60 minutes, then rinsed 2× with LCIS and imaged with standard TRITC or FITC filter sets. (see FIG. 5).
Cells were cultured and loaded as described above with Compound (4). This solution was removed from the cells and replaced with potassium LCIS pH 7.4 standard and imaging experiments begun with cells under constant perfusion by potassium LCIS pH standards of pH 7.4, 7.2, 6.5, and 6.0. […] (Nigericin and valinomycin added at 10 μM each from DMSO stock.) Images of Compound (4) AM loaded cells at pH 7.4 and 6.0 are shown in FIG. 6. Functional kinetic responses from individually selected cells in the sample are shown in FIG. 7 as the pH was changed from 7.4 to 6.0 and back.

The subject of experiment [1] is J774.2 murine macrophages. The experiment is described as follows: No-wash phagocytosis assay with E. coli bioparticles conjugated to pH-sensitive dye. In kind it is cell-based. Particulars: E. coli bioparticle-dye conjugates, J774.2 macrophages. An excerpt: Certain embodiments provide a no-wash, no-quench assay for phagocytosis that is based on fluorogenic bioparticles comprising the pH-sensitive fluorescent dye compounds provided herein. Current protocols for measuring phagocytosis that use fluorescent bioparticles, require a trypan blue quenching step and several washing steps. These steps can introduce significant variability in the assay. To address this issue, provided herein is a no-wash phagocytosis kit, using E. coli bioparticles conjugated to a pH-sensitive fluorescent dye as described herein. These bioparticle conjugates are weakly fluorescent at extracellular pH. […] The pH-sensitive fluorescent bioparticles described herein may be used in plate based, as well as imaging and flow cytometry assays of phagocytosis.

`CCN(CCCC(=O)NCCCCC(C(=O)OCOC(C)=O)N(CC(=O)OCOC(C)=O)CC(=O)OCOC(C)=O)c1cc(OC)c(-c2c3ccc(=[N+](C)C)cc-3oc3cc(N(C)C)ccc23)cc1N(C)C` (centres unmarked) [Compound (4), N-(9-(4-((8-(2-(acetoxymethoxy)-2-oxoethyl)-9-((acetoxymethoxy)carbonyl)-2,6,15-trioxo-3,5-dioxa-8,14-diazaoctadecan-18-yl)(ethyl)amino)-5-(dimethylamino)-2-methoxyphenyl)-6-(dimethylamino)-3H-xanthen-3-ylidene)-N-methylmethanaminium]: the “signal from the dye inside of the cells as external pH changed” value in the experiment with cells was “the signal from the dye inside of the cells changed”.
As to cytochalaisin D, the “uptake of the bioparticles (phagocytosis)” value in experiment [1] is “potently inhibited”.
